Bounds are passed on as bounds.

This assay deals with T1, p-AXL (Homo sapiens, UniProt P30530).
T1 construct: expressed in transfected cells; host or cells: HEK293T
T1 sequence (P30530 26-894): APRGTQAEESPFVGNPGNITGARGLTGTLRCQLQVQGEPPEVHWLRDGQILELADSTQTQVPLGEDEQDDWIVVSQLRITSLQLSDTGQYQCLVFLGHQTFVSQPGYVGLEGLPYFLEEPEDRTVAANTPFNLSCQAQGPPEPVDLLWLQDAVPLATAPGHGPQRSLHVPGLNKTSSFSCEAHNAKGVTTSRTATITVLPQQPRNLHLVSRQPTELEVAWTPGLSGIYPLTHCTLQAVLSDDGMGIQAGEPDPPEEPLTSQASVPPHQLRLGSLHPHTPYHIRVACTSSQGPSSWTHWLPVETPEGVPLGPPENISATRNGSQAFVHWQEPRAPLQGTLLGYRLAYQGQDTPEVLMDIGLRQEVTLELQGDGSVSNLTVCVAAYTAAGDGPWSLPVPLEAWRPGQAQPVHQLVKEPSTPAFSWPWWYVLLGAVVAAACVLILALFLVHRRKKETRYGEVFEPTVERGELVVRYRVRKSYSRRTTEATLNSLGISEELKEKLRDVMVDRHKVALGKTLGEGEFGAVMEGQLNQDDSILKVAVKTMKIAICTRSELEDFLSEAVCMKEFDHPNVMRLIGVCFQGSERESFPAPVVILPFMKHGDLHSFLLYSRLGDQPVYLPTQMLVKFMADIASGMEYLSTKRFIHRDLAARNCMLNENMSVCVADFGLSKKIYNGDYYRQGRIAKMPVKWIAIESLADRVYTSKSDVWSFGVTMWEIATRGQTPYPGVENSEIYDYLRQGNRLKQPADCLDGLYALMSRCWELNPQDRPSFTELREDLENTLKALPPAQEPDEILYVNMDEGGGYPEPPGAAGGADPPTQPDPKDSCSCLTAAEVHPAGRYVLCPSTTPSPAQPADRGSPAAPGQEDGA
The experiment in a line: Axl phosphorylation inhibition ELISA in HEK293T cells transfected with NanoLuc-tagged AXL. It counts as cell-based. To be noted: 1 h compound incubation, media (OptiMEM). An outline of the steps:
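Phospho-AXL detected by luminescence of NanoLuc tag after capture of cell lysate on biotinylated anti-phospho-tyrosine mAb plates (2 h). Lysates came from transiently transfected HEK293T cells treated 1 h at 37° C with serial 2-fold dilutions (22 points). IC50 by standard 4-parameter logistic fitting.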
Background: An ELISA detects its analyte on a solid surface through an enzyme-linked reagent.
A word on the IC50: it is the midpoint of a concentration-inhibition curve. `Cc1nccnc1-c1ccc(-c2c[nH]c3ncc(-c4ccc5c(c4)CC[C@@H](N4C6COCC4C6)CC5)cc23)cc1` [Example 48, 6-[(7S)-2-{3-[4-(3-Methylpyrazin-2-yl)phenyl]-1H-pyrrolo[2,3-b]pyridin-5-yl}-6,7,8,9-tetrahydro-5H-benzo[7]annulen-7-yl]-3-oxa-6-azabicyclo[3.1.1]heptane] displayed an IC50 of less than 100 nM.
`C[C@@H]1CCCN1[C@@]1(C)CCc2ccc(-c3cnc4[nH]nc(-c5ccc(-c6ncco6)cc5)c4c3)cc2CC1` [Example 90, 2-(4-{5-[(7S)-7-Methyl-7-[(2R)-2-methylpyrrolidin-1-yl]-6,7,8,9-tetrahydro-5H-benzo[7]annulen-2-yl]-2H-pyrazolo[3,4-b]pyridin-3-yl}phenyl)-1,3-oxazole] yielded an IC50 of less than 100 nM.
In turn, `CN(C)C(=O)c1ccccc1-c1ccc(-c2c[nH]c3ncc(-c4ccc5c(c4)CC[C@@H](N4C6COCC4C6)CC5)cc23)cc1` [Example 92, N,N-Dimethyl-4′-{5-[(7S)-7-{3-oxa-6-azabicyclo[3.1.1]heptan-6-yl}-6,7,8,9-tetrahydro-5H-benzo[7]annulen-2-yl]-1H-pyrrolo[2,3-b]pyridin-3-yl}-[1,1′-biphenyl]-2-carboxamide] displayed an IC50 of less than 100 nM.
The molecule `c1ccc(-c2ccc(-c3c[nH]c4ncc(-c5ccc6c(c5)CC[C@@H](N5C[C@@H]7C[C@H]5CO7)CC6)cc34)cc2)nc1` [Example 33, (1S,4S)-5-[(7S)-3-[3-(4-Pyridin-2-ylphenyl)-1H-pyrrolo[2,3-b]pyridin-5-yl]-6,7,8,9-tetrahydro-5H-benzo[7]annulen-7-yl]-2-oxa-5-azabicyclo[2.2.1]heptane] registered an IC50 of 100 to 1000 nM.
As to `Cc1ccnnc1-c1ccc(-c2c[nH]c3ncc(-c4ccc5c(c4)CC[C@@](C)(N4CCC[C@H]4C)CC5)cc23)cc1` [Example 51, 4-methyl-3-(4-{5-[(7S)-7-Methyl-7-[(2R)-2-methylpyrrolidin-1-yl]-6,7,8,9-tetrahydro-5H-benzo[7]annulen-2-yl]-1H-pyrrolo[2,3-b]pyridin-3-yl}phenyl)pyridazine], the IC50 was less than 100 nM.
The molecule `Cc1cnc(-c2ccc(-c3c[nH]c4ncc(-c5ccc6c(c5)CC[C@@H](N5CCCC5)CC6)cc34)cc2)c(C)n1` [Example 59, 3,5-Dimethyl-2-(4-{5-[(7S)-7-(pyrrolidin-1-yl)-6,7,8,9-tetrahydro-5H-benzo[7]annulen-2-yl]-1H-pyrrolo[2,3-b]pyridin-3-yl}phenyl)pyrazine] gave an IC50 of 100 to 1000 nM.
For the molecule `Cc1cc(C)c(-c2ccc(-c3c[nH]c4ncc(-c5ccc6c(c5)CC[C@@H](N5C7COCC5C7)CC6)cc34)cc2)nn1` [Example 80, 6-[(7S)-2-{3-[4-(4,6-Dimethylpyridazin-3-yl)phenyl]-1H-pyrrolo[2,3-b]pyridin-5-yl}-6,7,8,9-tetrahydro-5H-benzo[7]annulen-7-yl]-3-oxa-6-azabicyclo[3.1.1]heptane], the IC50 was less than 100 nM.
`Cc1cc(C)c(-c2ccc(-c3n[nH]c4ncc(-c5ccc6c(c5)CC[C@@H](N5C7COCC5C7)CC6)cc34)cc2)nn1` [Example 77, 6-[(7S)-2-{3-[4-(4,6-Dimethylpyridazin-3-yl)phenyl]-1H-pyrazolo[3,4-b]pyridin-5-yl}-6,7,8,9-tetrahydro-5H-benzo[7]annulen-7-yl]-3-oxa-6-azabicyclo[3.1.1]heptane] came in with an IC50 of less than 100 nM.
For `Cc1cccnc1-c1ccc(-c2c[nH]c3ncc(-c4ccc5c(c4)CC[C@@H](N4C6COCC4C6)CC5)cc23)cc1` [Example 1, 6-[(7S)-2-{3-[4-(3-Methylpyridin-2-yl)phenyl]-1H-pyrrolo[2,3-b]pyridin-5-yl}-6,7,8,9-tetrahydro-5H-benzo[7]annulen-7-yl]-3-oxa-6-azabicyclo[3.1.1]heptane], the IC50 was less than 100 nM.
The molecule `CC(C)(C#N)c1cccnc1-c1ccc(-c2n[nH]c3ncc(-c4ccc5c(c4)CC[C@@H](N4C6COCC4C6)CC5)cc23)cc1` [Example 85, 2-Methyl-2-[2-[4-[5-[(7S)-7-(3-oxa-6-azabicyclo[3.1.1]heptan-6-yl)-6,7,8,9-tetrahydro-5H-benzo[7]annulen-3-yl]-1H-pyrazolo[3,4-b]pyridine-3-yl]phenyl]pyridine-3-yl]propanenitrile] gave an IC50 of less than 100 nM.
For the molecule `CS(=O)(=O)c1ccccc1-c1ccc(-c2c[nH]c3ncc(-c4ccc5c(c4)CC[C@@H](N4C6COCC4C6)CC5)cc23)cc1` [Example 93, 6-[(7S)-2-(3-{2′-Methanesulfonyl-[1,1′-biphenyl]-4-yl}-1H-pyrrolo[2,3-b]pyridin-5-yl)-6,7,8,9-tetrahydro-5H-benzo[7]annulen-7-yl]-3-oxa-6-azabicyclo[3.1.1]heptane], the IC50 lay in the range of 100 to 1000 nM.

(Values after patent publication US12195482B1 (Arcus Biosciences, Inc., priority 2022, dated 2025).)
